# Source: patent publication US11274283B2 (priority 2014, dated 2022)
# What was measured:
# mushroom tyrosinase [1] = test: Inhibition of mushroom tyrosinase; format: biochemical; conditions: cannot complete the reaction
# [2] = tested on: Ralstonia solanacearum tyrosinase; format: biochemical; conditions: up to 400 mM
# mushroom tyrosinase [3] = conditions: at 5 mM; scientific literature; cited from earlier work
structure (smiles),measurement,setting,value
"OCCc1ccc(O)cc1 [tyrosol, 4-(2-hydroxyethyl)phenol]",tyrosol concentration above which commercial mushroom tyrosinase is inhibited,mushroom tyrosinase [1],above 10 g/l
O=C1O[C@H]([C@@H](O)CO)C([O-])=C1O.[Na+] [ascorbic acid sodium salt],inhibition of Ralstonia solanacearum tyrosinase activity,[2],No inhibition
O=C1O[C@H]([C@@H](O)CO)C(O)=C1O [ascorbic acid],inhibition of mushroom tyrosinase,mushroom tyrosinase [3],inhibition
